Test results reported in US8598157B2, “5-alkynyl-pyridines” (Boehringer Ingelheim International GmbH, priority 2011, dated 2013).

Columns and labels:
[1] = test system: MCF7 cells; experiment: alamarBlue MCF7 cell assay (antiproliferative/cytotoxicity); type: cell-based; conditions: MCF7 human breast cancer cell line
Method in brief: (§1)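 Seed cells, incubate overnight 37 °C CO2; add cpds (final 10 μM, 1:3 serial, 10 steps, duplicates); incubate 5-6 d; alamarBlue 8 h 37 °C; fluorescence ex 530-560/em 590 nm; blank-subtracted EC50.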

[2] = test system: MB453 cells; experiment: alamarBlue MB453 cell assay (antiproliferative/cytotoxicity); type: cell-based; conditions: Homo sapiens; MDA MB 453 breast cancer cell line
Method in brief: as §1

[3] = test system: BT474 cells; experiment: alamarBlue BT474 cell assay (antiproliferative/cytotoxicity); type: cell-based; conditions: BT-474 human breast cancer cell line
Method in brief: as §1

[4] = biological target: PI3Kalpha (Homo sapiens (Human), UniProt P42336); experiment: Inhibition of PI3Kalpha-induced PIP-2 phosphorylation (filter-binding assay); type: biochemical; conditions: 33P-ATP, p85alpha/His-p110alpha, read-out: IC50 PI3Kα
Method in brief: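 Radiometric filter-binding assay: PI3Kα (25 ng/well) preincubated 20 min at room temperature with compound and PIP2-containing lipid vesicles plus phosphotyrosine PDGFRβ peptide. Reaction started with cold ATP (1 μM final) and [33P]-ATP and run 120 min at room temperature; filter-captured radioactivity counted, IC50 from duplicate dilution series.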

[5] = test system: U87 cells; experiment: U87 cell assay (antiproliferative/cytotoxicity); type: cell-based; conditions: U-87MG human glioblastoma cells
Method in brief: as §1

[6] = test system: H460 cells; experiment: alamarBlue H460 cell assay (antiproliferative/cytotoxicity); type: cell-based; conditions: NCI-H460; H460 human lung carcinoma cells
Method in brief: as §1

Sequence of PI3Kalpha (P42336 whole entry): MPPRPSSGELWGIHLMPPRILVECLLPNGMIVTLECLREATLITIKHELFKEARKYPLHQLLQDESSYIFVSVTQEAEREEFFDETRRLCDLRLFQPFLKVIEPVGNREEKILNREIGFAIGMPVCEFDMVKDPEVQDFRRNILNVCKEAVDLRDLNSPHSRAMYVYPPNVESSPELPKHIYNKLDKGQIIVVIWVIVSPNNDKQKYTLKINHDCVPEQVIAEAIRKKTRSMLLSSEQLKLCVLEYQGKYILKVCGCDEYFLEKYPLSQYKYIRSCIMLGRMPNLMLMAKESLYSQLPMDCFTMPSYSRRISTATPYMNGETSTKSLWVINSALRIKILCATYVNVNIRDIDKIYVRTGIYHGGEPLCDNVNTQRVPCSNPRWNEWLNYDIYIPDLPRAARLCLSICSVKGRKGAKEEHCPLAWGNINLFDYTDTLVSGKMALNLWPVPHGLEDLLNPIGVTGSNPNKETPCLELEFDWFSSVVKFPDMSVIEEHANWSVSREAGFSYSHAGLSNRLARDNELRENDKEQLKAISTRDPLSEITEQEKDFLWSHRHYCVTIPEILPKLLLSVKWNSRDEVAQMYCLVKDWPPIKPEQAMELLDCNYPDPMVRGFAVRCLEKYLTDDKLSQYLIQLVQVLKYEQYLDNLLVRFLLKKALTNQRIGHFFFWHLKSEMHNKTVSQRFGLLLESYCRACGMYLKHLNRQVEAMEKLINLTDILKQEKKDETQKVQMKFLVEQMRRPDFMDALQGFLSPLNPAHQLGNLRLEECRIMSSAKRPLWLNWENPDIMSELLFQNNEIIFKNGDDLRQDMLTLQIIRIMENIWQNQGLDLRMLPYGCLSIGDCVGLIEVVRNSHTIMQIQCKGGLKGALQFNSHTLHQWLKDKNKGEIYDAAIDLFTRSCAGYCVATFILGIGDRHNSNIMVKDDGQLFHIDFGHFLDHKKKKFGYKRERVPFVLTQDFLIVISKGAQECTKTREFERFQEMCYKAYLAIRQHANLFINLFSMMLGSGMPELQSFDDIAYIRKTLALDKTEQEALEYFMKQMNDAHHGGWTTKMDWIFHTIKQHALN

IC50 [4] [nM] | Structure (SMILES) | EC50 [1] [nM] | EC50 [2] [nM] | EC50 [3] [nM] | EC50 [5] [nM] | EC50 [6] [nM]
2 | Cc1ncc(C#Cc2c(C)ncnc2N2CCOCC2)cc1NS(=O)(=O)C(C)C [Example I-38, Propane-2-sulfonic acid [2-methyl-5-(4-methyl-6-morpholin-4-yl-pyrimidin-5-ylethynyl)-pyridin-3-yl]-amide] | 304 | 642 | 1220 | 836 | 829
5 | Cc1ncc(C#Cc2c(C)ncnc2N2CCOCC2)cc1NS(=O)(=O)C1CCCCC1 [Example I-39, Cyclohexanesulfonic acid [2-methyl-5-(4-methyl-6-morpholin-4-yl-pyrimidin-5-ylethynyl)-pyridin-3-yl]-amide] | 1290 | 1790 | 2770 | 2910 | 1850
0.28 | Cc1ncc(C#Cc2c(C)ncnc2N2CCOCC2)cc1NS(=O)(=O)c1ccccc1 [Example I-40, N-[2-Methyl-5-(4-methyl-6-morpholin-4-yl-pyrimidin-5-ylethynyl)-pyridin-3-yl]-benzenesulfonamide] | 49 | 145 | 147 | 386 | 120
0.51 | Cc1ncc(C#Cc2c(C)ncnc2N2CCOCC2)cc1NS(=O)(=O)c1ccc(F)cc1F [Example I-41, 2,4-Difluoro-N-[2-methyl-5-(4-methyl-6-morpholin-4-yl-pyrimidin-5-ylethynyl)-pyridin-3-yl]-benzenesulfonamide] | 19 | 102 | 69 | 287 | 146
21 | Cc1ncc(C#Cc2c(C)ncnc2N2CCOCC2)cc1NS(=O)(=O)c1cnoc1C [Example I-47, 5-Methyl-isoxazole-4-sulfonic acid [2-methyl-5-(4-methyl-6-morpholin-4-yl-pyrimidin-5-ylethynyl)-pyridin-3-yl]-amide] | 10000 | 25000 | 10000 | 25000 | 25000
0.55 | Cc1cc(S(=O)(=O)Nc2cc(C#Cc3c(C)ncnc3N3CCOCC3)cnc2C)c(C)s1 [Example I-48, 2,5-Dimethyl-thiophene-3-sulfonic acid [2-methyl-5-(4-methyl-6-morpholin-4-yl-pyrimidin-5-ylethynyl)-pyridin-3-yl]-amide] | 14 | 533 | 754 | 341 | 100
2 | Cc1ncc(C#Cc2c(C)ncnc2N2CCOCC2)cc1NS(=O)(=O)c1ccco1 [Example I-49, Furan-2-sulfonic acid [2-methyl-5-(4-methyl-6-morpholin-4-yl-pyrimidin-5-ylethynyl)-pyridin-3-yl]-amide] | 49 | 393 | 444 | 512 | 356
1 | Cc1ncc(C#Cc2c(C)ncnc2N2CCOCC2)cc1NS(=O)(=O)c1ccoc1 [Example I-50, Furan-3-sulfonic acid [2-methyl-5-(4-methyl-6-morpholin-4-yl-pyrimidin-5-ylethynyl)-pyridin-3-yl]-amide] | 16 | 239 | 330 | 289 | 128
0.47 | Cc1ncc(C#Cc2c(C)ncnc2N2CCOCC2)cc1NS(=O)(=O)c1ccc(Cl)s1 [Example I-52, 5-Chloro-thiophene-2-sulfonic acid [2-methyl-5-(4-methyl-6-morpholin-4-yl-pyrimidin-5-ylethynyl)-pyridin-3-yl]-amide] | 39 | 298 | 224 | 443 | 274
2 | Cc1ncc(C#Cc2c(C)ncnc2N2CCOCC2)cc1NS(=O)(=O)c1c(C)noc1C [Example I-53, 3,5-Dimethyl-isoxazole-4-sulfonic acid [2-methyl-5-(4-methyl-6-morpholin-4-yl-pyrimidin-5-ylethynyl)-pyridin-3-yl]-amide] | 135 | 915 | 884 | 1280 | 793
1 | Cc1ncc(C#Cc2c(C)ncnc2N2CCOCC2)cc1NS(=O)(=O)c1cccnc1 [Example I-54, Pyridine-3-sulfonic acid [2-methyl-5-(4-methyl-6-morpholin-4-yl-pyrimidin-5-ylethynyl)-pyridin-3-yl]-amide] | 44 | 274 | 949 | 581 | 553
1 | Cc1ncc(C#Cc2c(C)ncnc2N2CCOCC2)cc1NS(=O)(=O)c1cn(C)c(C)n1 [Example I-55, 1,2-Dimethyl-1H-imidazole-4-sulfonic acid [2-methyl-5-(4-methyl-6-morpholin-4-yl-pyrimidin-5-ylethynyl)-pyridin-3-yl]-amide] | 208 | 1680 | 1550 | 1980 | 1180
0.44 | Cc1ncc(C#Cc2c(C)ncnc2N2CCOCC2)cc1NS(=O)(=O)c1ccnn1C [Example I-56, 2-Methyl-2H-pyrazole-3-sulfonic acid [2-methyl-5-(4-methyl-6-morpholin-4-yl-pyrimidin-5-ylethynyl)-pyridin-3-yl]-amide] | 125 | 239 | 487 | 779 | 756
0.83 | COCCN1CCN(c2ncnc(C)c2C#Cc2cnc(C)c(NS(=O)(=O)c3ccccc3)c2)CC1 [Example I-57, N-(5-{4-[4-(2-Methoxy-ethyl)-piperazin-1-yl]-6-methyl-pyrimidin-5-ylethynyl}-2-methyl-pyridin-3-yl)-benzenesulfonamide] | 2 | 443 | 1300 | 338 | 82
16 | Cc1ncc(C#Cc2c(C)ncnc2N2CCN(C3CC3)CC2)cc1NS(=O)(=O)c1ccccc1 [Example I-58, N-{5-[4-(4-Cyclopropyl-piperazin-1-yl)-6-methyl-pyrimidin-5-ylethynyl]-2-methyl-pyridin-3-yl}-benzenesulfonamide] | 1300 | 4640 | 3000 | 25000 | 2990
2 | Cc1ncc(C#Cc2c(C)ncnc2N2CCN(C)C(=O)C2)cc1NS(=O)(=O)c1ccccc1 [Example I-60, N-{2-Methyl-5-[4-methyl-6-(4-methyl-3-oxo-piperazin-1-yl)-pyrimidin-5-ylethynyl]-pyridin-3-yl}-benzenesulfonamide] | 103 | 618 | 1540 | 945 | 1250
2 | CC(=O)N1CCN(c2ncnc(C)c2C#Cc2cnc(C)c(NS(=O)(=O)c3ccccc3)c2)CC1 [Example I-61, N-{5-[4-(4-Acetyl-piperazin-1-yl)-6-methyl-pyrimidin-5-ylethynyl]-2-methyl-pyridin-3-yl}-benzenesulfonamide] | 39 | 262 | 1120 | 631 | 791
